Results: US9593109B2, “Bicyclic agonists of GPR131 and uses thereof” (CYMABAY THERAPEUTICS, INC., priority 2011, dated 2017)

Target: T1, human GPR131 (Homo sapiens, UniProt Q8TDU6)
T1 construct: expressed in transfected cells
T1 sequence (Q8TDU6 1-330): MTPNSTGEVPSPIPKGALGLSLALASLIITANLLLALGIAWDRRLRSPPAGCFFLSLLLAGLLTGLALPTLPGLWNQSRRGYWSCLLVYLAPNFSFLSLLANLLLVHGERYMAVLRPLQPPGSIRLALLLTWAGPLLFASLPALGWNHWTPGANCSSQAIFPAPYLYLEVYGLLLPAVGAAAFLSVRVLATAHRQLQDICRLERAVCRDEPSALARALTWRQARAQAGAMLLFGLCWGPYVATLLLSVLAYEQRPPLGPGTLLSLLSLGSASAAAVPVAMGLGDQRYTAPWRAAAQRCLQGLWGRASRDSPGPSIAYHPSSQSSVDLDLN
Assay: Stimulation of cAMP (agonism of GPR131), FRET cAMP assay
Assay type: cell-based
Details: 0.5 h; 1.1 μM compound; compared to maximal stimulatory activity of lithocholic acid (LCA) determined at 3.3 μM; stable cell line expressing human GPR131; 37° C. for 30 minutes; read-out: Percent Activity @ 1.1 μM (of 3.3 uM LCA) (%)
Procedure: This assay was developed using a stable cell line expressing human GPR131.
To measure cAMP activity in response to GPR131 agonists, GPR131 cells suspended in DMEM/F12 medium with 1 mM IBMX were seeded in 384 well plates at 5000 cells per well. After incubating with test compounds at 37° C. for 30 minutes cAMP was measured using a fluorescene resonance energy transfer cAMP kit from Cis Bio (Bedford, Mass.) according to the manufacturer's instructions. Briefly, cells were lysed, and cAMP levels determined by competitive immunoassay using D2 labeled cAMP, and europium cryptate tagged anti cAMP antibody. Decreases in the FRET signal (fluorescence ratio (665 nm/620 […]) correspond to increases in intracellular cAMP levels.
Activities of test compounds in Table 1 below are expressed as percent activity at 1.1 μM compound compared to the maximal stimulatory activity of lithocholic acid (LCA) (determined at 3.3 μM LCA).

| activation at 1.1 µM [%] | SMILES |
| --- | --- |
| 99.7 | N#Cc1ccc(-n2nnnc2-c2c(-c3cc(Cl)ccc3Cl)nc3ccccn23)cc1 [Compound 566, 4-(5-(2-(2,5-Dichlorophenyl)imidazo[1,2-a]pyridin-3-yl)-1H-tetrazol-1-yl)benzonitrile] |
| 93.9 | Clc1ccc(Cl)c(-c2nc3ccccn3c2-c2nncn2-c2ccc3ncccc3c2)c1 [Compound 541, 6-(3-(2-(2,5-Dichlorophenyl)imidazo[1,2-a]pyridin-3-yl)-4H-1,2,4-triazol-4-yl)quinoline] |
| 100 | N#Cc1ccc(-n2cnnc2-c2c(-c3cc(Cl)ccc3Cl)nc3ccccn23)cc1 [Compound 515, 4-(3-(2-(2,5-Dichlorophenyl)imidazo[1,2-a]pyridin-3-yl)-4H-1,2,4-triazol-4-yl)benzonitrile] |
| 99.9 | Clc1ccc(-n2cnnc2-c2c(-c3cc(Cl)ccc3Cl)nc3ccccn23)cc1 [Compound 553, 3-(4-(4-Chlorophenyl)-4H-1,2,4-triazol-3-yl)-2-(2,5-dichlorophenyl)imidazo[1,2-a]pyridine] |
| 97.9 | FC(F)(F)c1ccc(-n2nnnc2-c2c(-c3cc(Cl)ccc3Cl)nc3ccccn23)cc1 [Compound 562, 2-(2,5-Dichlorophenyl)-3-(1-(4-(trifluoromethyl)phenyl)-1H-tetrazol-5-yl)imidazo[1,2-a]pyridine] |
| 99.9 | N#Cc1ccc(-n2ccnc2-c2c(-c3cc(Cl)ccc3Cl)nc3ccccn23)cc1 [Compound 567, 4-(2-(2-(2,5-Dichlorophenyl)imidazo[1,2-a]pyridin-3-yl)-1H-imidazol-1-yl)benzonitrile] |
| 98.9 | CC(C)c1ccc(-n2cnnc2-c2c(-c3cc(Cl)ccc3Cl)nc3ccccn23)cc1 [Compound 530, 2-(2,5-Dichlorophenyl)-3-(4-(4-isopropylphenyl)-4H-1,2,4-triazol-3-yl)imidazo[1,2-a]pyridine] |
| 88.4 | Clc1ccc(-n2nnnc2-c2c(-c3cc(Cl)ccc3Cl)nc3cnccn23)cc1 [Compound 556, 3-(1-(4-Chlorophenyl)-1H-tetrazol-5-yl)-2-(2,5-dichlorophenyl)imidazo[1,2-a]pyrazine] |
| 100 | Cn1ccc2cc(-n3cnnc3-c3c(-c4cc(Cl)ccc4Cl)nc4ccccn34)ccc21 [Compound 536, 2-(2,5-Dichlorophenyl)-3-(4-(1-methyl-1H-indol-5-yl)-4H-1,2,4-triazol-3-yl)imidazo[1,2-a]pyridine] |
| 96.8 | Fc1ccccc1-n1cnnc1-c1c(-c2cc(Cl)ccc2Cl)nc2ccccn12 [Compound 534, 2-(2,5-Dichlorophenyl)-3-(4-(2-fluorophenyl)-4H-1,2,4-triazol-3-yl)imidazo[1,2-a]pyridine] |
| 100 | Clc1ccc(-n2nnnc2-c2c(-c3cc(Cl)ccc3Cl)nc3ccccn23)cc1 [Compound 552, 3-(1-(4-Chlorophenyl)-1H-tetrazol-5-yl)-2-(2,5-dichlorophenyl)imidazo[1,2-a]pyridine] |
| 95.7 | Cn1ncc2ccc(-n3cnnc3-c3c(-c4cc(Cl)ccc4Cl)nc4ccccn34)cc21 [Compound 520, 6-(3-(2-(2,5-Dichlorophenyl)imidazo[1,2-a]pyridin-3-yl)-4H-1,2,4-triazol-4-yl)-1-methyl-1H-indazole] |
| 81.6 | Cn1cnc2cc(-n3cnnc3-c3c(-c4cc(Cl)ccc4Cl)nc4ccccn34)ccc21 [Compound 521, 5-(3-(2-(2,5-Dichlorophenyl)imidazo[1,2-a]pyridin-3-yl)-4H-1,2,4-triazol-4-yl)-1-methyl-1H-benzo[d]imidazole] |
| 100 | FC(F)(F)c1ccc(-n2ccnc2-c2c(-c3cc(Cl)ccc3Cl)nc3ccccn23)cc1 [Compound 564, 2-(2,5-Dichlorophenyl)-3-(1-(4-(trifluoromethyl)phenyl)-1H-imidazol-2-yl)imidazo[1,2-a]pyridine] |
| 99.5 | FC(F)(F)c1ccc(-n2nnnc2-c2c(-c3cc(Cl)ccc3Cl)nc3cccnn23)cc1 [Compound 563, 2-(2,5-Dichlorophenyl)-3-(1-(4-(trifluoromethyl)phenyl)-1H-tetrazol-5-yl)imidazo[1,2-b]pyridazine] |
| 100 | Clc1ccc(-n2nnnc2-c2c(-c3cc(Cl)ccc3Cl)nc3cccnn23)cc1 [Compound 555, 3-(1-(4-Chlorophenyl)-1H-tetrazol-5-yl)-2-(2,5-dichlorophenyl)imidazo[1,2-b]pyridazine] |

| activation at 1.1 µM [%] | SMILES |
| --- | --- |
| 99.1 | Fc1ccc(-c2nn3ccccc3c2-c2nncn2-c2ccc(Cl)cc2)cc1 [Compound 524, 3-(4-(4-Chlorophenyl)-4H-1,2,4-triazol-3-yl)-2-(4-fluorophenyl)pyrazolo[1,5-a]pyridine] |
| 91.4 | Clc1ccccc1-c1nc2ccccn2c1-c1nncn1-c1ccc2cn[nH]c2c1 [Compound 522, 6-(3-(2-(2-Chlorophenyl)imidazo[1,2-a]pyridin-3-yl)-4H-1,2,4-triazol-4-yl)-1H-indazole] |
| 90.9 | Cn1ncc2c(-n3cnnc3-c3c(-c4cc(Cl)ccc4Cl)nc4ccccn34)cccc21 [Compound 545, 4-(3-(2-(2,5-Dichlorophenyl)imidazo[1,2-a]pyridin-3-yl)-4H-1,2,4-triazol-4-yl)-1-methyl-1H-indazole] |
| 86.8 | CSc1nnc(-c2c(-c3cc(Cl)ccc3Cl)nc3ccccn23)n1-c1ccc(Cl)cc1 [Compound 528, 3-(4-(4-Chlorophenyl)-5-(methylthio)-4H-1,2,4-triazol-3-yl)-2-(2,5-dichlorophenyl)imidazo[1,2-a]pyridine] |
| 99.4 | Clc1ccc(-n2cnnc2-c2c(-c3ccccc3Cl)nc3ccccn23)cc1 [Compound 501, 2-(2-Chlorophenyl)-3-(4-(4-chlorophenyl)-4H-1,2,4-triazol-3-yl)imidazo[1,2-a]pyridine] |
| 96 | Clc1cccc(-c2nc3ccccn3c2-c2nncn2-c2ccc3cn[nH]c3c2)c1 [Compound 568, 6-(3-(2-(3-Chlorophenyl)imidazo[1,2-a]pyridin-3-yl)-4H-1,2,4-triazol-4-yl)-1H-indazole] |
| 100 | Clc1ccc(-n2ccnc2-c2c(-c3cc(Cl)ccc3Cl)nc3cccnn23)cc1 [Compound 561, 3-(1-(4-Chlorophenyl)-1H-imidazol-2-yl)-2-(2,5-dichlorophenyl)imidazo[1,2-b]pyridazine] |
| 100 | FC(F)(F)c1ccc(-n2ccnc2-c2c(-c3cc(Cl)ccc3Cl)nc3cccnn23)cc1 [Compound 565, 2-(2,5-Dichlorophenyl)-3-(1-(4-(trifluoromethyl)phenyl)-1H-imidazol-2-yl)imidazo[1,2-b]pyridazine] |
| 97.1 | COc1nnc(-c2c(-c3cc(Cl)ccc3Cl)nc3ccccn23)n1-c1ccc(Cl)cc1 [Compound 527, 3-(4-(4-Chlorophenyl)-5-methoxy-4H-1,2,4-triazol-3-yl)-2-(2,5-dichlorophenyl)imidazo[1,2-a]pyridine] |
| 99.9 | Cn1ncc2cc(-n3cnnc3-c3c(-c4cc(Cl)ccc4Cl)nc4ccccn34)ccc21 [Compound 519, 5-(3-(2-(2,5-Dichlorophenyl)imidazo[1,2-a]pyridin-3-yl)-4H-1,2,4-triazol-4-yl)-1-methyl-1H-indazole] |
| 97.4 | Clc1ccc(-n2nnnc2-c2c(-c3ccccc3Cl)nc3ccccn23)cc1 [Compound 500, 2-(2-Chlorophenyl)-3-(1-(4-chlorophenyl)-1H-tetrazol-5-yl)imidazo[1,2-a]pyridine] |
| 95.7 | Clc1ccc(-n2nnnc2-c2c(-c3cc(Cl)ccc3Cl)nc3occn23)cc1 [Compound 551, 5-(1-(4-Chlorophenyl)-1H-tetrazol-5-yl)-6-(2,5-dichlorophenyl)imidazo[2,1-b]oxazole] |
| 99.8 | Clc1ccc(Cl)c(-c2nc3ccccn3c2-c2nncn2-c2ccc3cn[nH]c3c2)c1 [Compound 516, 6-(3-(2-(2,5-Dichlorophenyl)imidazo[1,2-a]pyridin-3-yl)-4H-1,2,4-triazol-4-yl)-1H-indazole] |
| 99.6 | CCc1ccc(-n2cnnc2-c2c(-c3cc(Cl)ccc3Cl)nc3ccccn23)cc1 [Compound 529, 2-(2,5-Dichlorophenyl)-3-(4-(4-ethylphenyl)-4H-1,2,4-triazol-3-yl)imidazo[1,2-a]pyridine] |
| 88.8 | Clc1ccc(Cl)c(-c2nc3ccccn3c2-c2nncn2-c2ccc(-c3ccccc3)cc2)c1 [Compound 531, 3-(4-([1,1′-Biphenyl]-4-yl)-4H-1,2,4-triazol-3-yl)-2-(2,5-dichlorophenyl)imidazo[1,2-a]pyridine] |

| SMILES | activation at 1.1 µM [%] |
| --- | --- |
| Cc1nc(-c2c(-c3cc(Cl)ccc3Cl)nc3ccccn23)n(-c2ccc(Cl)cc2)n1 [Compound 504, 3-(1-(4-Chlorophenyl)-3-methyl-1H-1,2,4-triazol-5-yl)-2-(2,5-dichlorophenyl)imidazo[1,2-a]pyridine] | 97.4 |
| Clc1ccc(-n2ncnc2-c2c(-c3ccccc3Cl)nc3ccccn23)cc1 [Compound 503, 2-(2-Chlorophenyl)-3-(1-(4-chlorophenyl)-1H-1,2,4-triazol-5-yl)imidazo[1,2-a]pyridine] | 97.4 |
